Among the data in US11046680B1, “Heteroaryl-substituted triazoles as APJ receptor agonists” (priority 2016, dated 2021) are EC50 values, retold here.

Each structure is given as a SMILES string. pEC50: −log10 of the molar value.

The target in the assay is human APJ receptor (Homo sapiens (Human), UniProt P35414). In words: biochemical. In kind it is biochemical. The following applies: [35S]GTPγS binding, CHO membranes expressing human APJ receptor; read-out: Activity hAPJ SPA EC50 IP. In short, it runs like this:
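GTPγS binding on membranes from CHO cells stably expressing FLAG-tagged human APJ, with optimized GDP, MgCl2 and NaCl; incubated 90 min at RT before imaging read-out.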

Chain of human APJ receptor (P35414 whole entry): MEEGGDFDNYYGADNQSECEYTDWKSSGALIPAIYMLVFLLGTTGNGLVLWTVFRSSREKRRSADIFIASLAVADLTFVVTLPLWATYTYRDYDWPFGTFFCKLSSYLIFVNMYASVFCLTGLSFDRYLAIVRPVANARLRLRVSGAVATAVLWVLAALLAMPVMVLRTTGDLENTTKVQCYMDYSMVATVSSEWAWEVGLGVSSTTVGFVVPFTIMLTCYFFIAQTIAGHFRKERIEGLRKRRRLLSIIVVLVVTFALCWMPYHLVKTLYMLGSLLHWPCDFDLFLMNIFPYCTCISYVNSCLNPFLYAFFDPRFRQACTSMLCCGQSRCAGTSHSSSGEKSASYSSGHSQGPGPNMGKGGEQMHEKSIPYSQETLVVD

In the case of `COc1cccc(OC)c1-n1c(NS(=O)(=O)[C@@H](C)[C@H](C)c2ncc(C#N)cn2)nnc1-c1ccn(C(F)F)n1` [Example 224.0, (2S,3R)-3-(5-cyano-2-pyrimidinyl)-N-(5-(1-(difluoromethyl)-1H-pyrazol-3-yl)-4-(2,6-dimethoxyphenyl)-4H-1,2,4-triazol-3-yl)-2-butanesulfonamide], the pEC50 is 9.39.

Consider `COc1cccc(OC)c1-n1c(NS(=O)(=O)[C@@H](C)[C@H](C)c2ncc(C#N)cn2)nnc1-c1cc2n(n1)CCC2` [Example 225.0], for which the pEC50 was 8.70. Consider `Cc1cnc([C@@H](C)[C@H](C)S(=O)(=O)Nc2nnc(-c3ccn(C)n3)n2-c2c(F)cccc2F)nc1` [Example 226.0, (2S,3R)-N-(4-(2,6-difluorophenyl)-5-(1-methyl-1H-pyrazol-3-yl)-4H-1,2,4-triazol-3-yl)-3-(5-methyl-2-pyrimidinyl)-2-butanesulfonamide], for which the negative logarithm of the EC50 (pEC50) was 7.96. With `Cc1cnc([C@H](OC(C)C)[C@H](C)S(=O)(=O)Nc2nnc(-c3ccn(C)n3)n2-c2c(F)cccc2F)nc1` [Example 227.0, (1S,2S)-N-(4-(2,6-difluorophenyl)-5-(1-methyl-1H-pyrazol-3-yl)-4H-1,2,4-triazol-3-yl)-1-(1-methylethoxy)-1-(5-methyl-2-pyrimidinyl)-2-propanesulfonamide], the negative-log EC50 (pEC50) was 8.80. The result for `C[C@H](c1ncc(Cl)cn1)[C@H](C)S(=O)(=O)Nc1nnc(-c2ccn(C)n2)n1-c1c(F)cccc1F` [Example 228.0, (2S,3R)-3-(5-chloro-2-pyrimidinyl)-N-(4-(2,6-difluorophenyl)-5-(1-methyl-1H-pyrazol-3-yl)-4H-1,2,4-triazol-3-yl)-2-butanesulfonamide] reads 8.40; that for `CO[C@H](c1ncc(Cl)cn1)[C@H](C)S(=O)(=O)Nc1nnc(-c2ccn(C)n2)n1-c1c(F)cccc1F` [Example 229.0, (1R,2S)-1-(5-chloro-2-pyrimidinyl)-N-(4-(2,6-difluorophenyl)-5-(1-methyl-1H-pyrazol-3-yl)-4H-1,2,4-triazol-3-yl)-1-methoxy-2-propanesulfonamide], 8.51; that for `COc1cnc([C@@H](C)[C@H](C)S(=O)(=O)Nc2nnc(-c3ccn(C)n3)n2-c2c(F)cccc2F)cn1` [Example 230.0, (2S,3R)-N-(4-(2,6-difluorophenyl)-5-(1-methyl-1H-pyrazol-3-yl)-4H-1,2,4-triazol-3-yl)-3-(5-methoxy-2-pyrazinyl)-2-butanesulfonamide], 7.60.

Consider `Cc1cnc([C@@H](C)[C@H](C)S(=O)(=O)Nc2nnc(-c3ccn(C)n3)n2-c2c(F)cccc2F)cn1` [Example 231.0, (2S,3R)-N-(4-(2,6-difluorophenyl)-5-(1-methyl-1H-pyrazol-3-yl)-4H-1,2,4-triazol-3-yl)-3-(5-methyl-2-pyrazinyl)-2-butanesulfonamide], for which the negative-log EC50 (pEC50) is 7.34. The result for `CO[C@H](c1cnc(C)cn1)[C@H](C)S(=O)(=O)Nc1nnc(-c2ccn(C)n2)n1-c1c(F)cccc1F` [Example 232.0, (1R,2S)-N-(4-(2,6-difluorophenyl)-5-(1-methyl-1H-pyrazol-3-yl)-4H-1,2,4-triazol-3-yl)-1-methoxy-1-(5-methyl-2-pyrazinyl)-2-propanesulfonamide] reads 7.27; that for `CO[C@H](c1ncc(C)cn1)[C@H](C)S(=O)(=O)Nc1nnc(-c2ccn(C)n2)n1-c1c(F)cccc1F` [Example 233.0, (1R,2S)-N-(4-(2,6-difluorophenyl)-5-(1-methyl-1H-pyrazol-3-yl)-4H-1,2,4-triazol-3-yl)-1-methoxy-1-(5-methyl-2-pyrimidinyl)-2-propanesulfonamide], 7.77; that for `COc1ccccc1-n1c(NS(=O)(=O)Cc2ccc(Cl)cc2)nnc1-c1cccs1` [Example 234.0, 1-(4-chlorophenyl)-N-(4-(2-methoxyphenyl)-5-(2-thiophenyl)-4H-1,2,4-triazol-3-yl)methanesulfonamide], 6.47.
